Results on 20 compounds are retold here after patent publication US10899738B2 (THE REGENTS OF THE UNIVERSITY OF MICHIGAN, priority 2016, dated 2021).

One test deals with menin protein (Homo sapiens (Human), UniProt O00255). As to the kind of experiment: biochemical. Conditions: FP competitive binding; menin protein 4 nM, FAM-MM2 probe 2 nM; read-out: Menin Binding Affinity IC50. It is filed as binding. An outline of the steps: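 Test compounds displaced FAM-MM2 (2 nM) from 4 nM menin after 30 min equilibration at room temperature in PBS buffer containing bovine γ-globulin, 4% DMSO and Triton X-100. Binding was followed by fluorescence polarization. Competition curves were fitted by nonlinear regression to give IC50 and Ki.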
menin protein, sequence (O00255 whole entry): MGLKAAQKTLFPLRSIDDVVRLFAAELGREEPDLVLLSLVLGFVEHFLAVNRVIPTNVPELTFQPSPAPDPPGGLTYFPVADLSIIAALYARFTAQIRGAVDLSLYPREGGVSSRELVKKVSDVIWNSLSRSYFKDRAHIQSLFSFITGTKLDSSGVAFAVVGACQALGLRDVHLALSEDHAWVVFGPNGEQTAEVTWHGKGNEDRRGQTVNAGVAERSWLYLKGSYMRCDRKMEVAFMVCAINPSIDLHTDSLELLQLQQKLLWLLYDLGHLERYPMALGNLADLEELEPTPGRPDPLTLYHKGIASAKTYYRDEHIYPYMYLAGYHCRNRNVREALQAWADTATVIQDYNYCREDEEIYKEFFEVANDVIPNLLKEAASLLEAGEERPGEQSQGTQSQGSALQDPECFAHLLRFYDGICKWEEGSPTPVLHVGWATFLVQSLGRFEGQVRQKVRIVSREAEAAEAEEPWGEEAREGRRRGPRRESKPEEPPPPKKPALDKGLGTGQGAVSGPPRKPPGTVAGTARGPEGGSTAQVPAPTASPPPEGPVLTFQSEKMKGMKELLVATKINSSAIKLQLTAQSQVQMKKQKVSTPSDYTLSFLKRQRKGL

Test [1] is described as follows: Cell growth inhibition, CellTiter-Glo Luminescent Cell Viability Assay. Format: cell-based. An outline of the steps: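 Cells seeded at 2,000/well with serially diluted compound and cultured 4 days at 37 °C, 5% CO2. Viability read by CellTiter-Glo luminescence; IC50 derived from dose-response.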
The mark [2] stands for this setting: MOLM-13, 96 h, read-out: Cell Growth Inhibition IC50 (μM) MOLM13, MOLM13 cells, 4 days, CellTiter-Glo.
Setting [3] is: MV4-11, 96 h, read-out: Cell Growth Inhibition IC50 (μM) MV4, 11, MV4, 11 cells, 4 days, CellTiter-Glo.
Setting [4] is: MOLM-13, 96 h, MOLM13 cells, 4 days, CellTiter-Glo, read-out: Cell Growth Inhibition IC50 (μM) MOLM13.
Where [5] appears, read: MV4-11, 96 h, MV4, 11 cells, 4 days, CellTiter-Glo, read-out: Cell Growth Inhibition IC50 (μM) MV4, 11.

In general, IC50 refers to the concentration at which inhibition is half-maximal.

Molecules are shown by their SMILES. Where two headings read alike, the source gives them in different places.

In the case of `CN(C)C(=O)N[C@H]1CCC[C@@H]1C(Cn1ccnc1)(c1ccccc1)C1CCN(CC2CN(c3ccc(S(=O)(=O)c4cnn(C)c4)cc3)C2)CC1` (mixture of isomers) [compound 376, rac-3-((1S,2R)-2-(2-(1H-imidazol-1-yl)-1-(1-((1-(4-((1-methyl-1H-pyrazol-4-yl)sulfonyl)phenyl)azetidin-3-yl)methyl)piperidin-4-yl)-1-phenylethyl)cyclopentyl)-1,1-dimethylurea], the figures for the IC50 (on menin protein; in test [1] (setting [2]); in test [1] (setting [3])) were 6 nM, over 10 µM and 10.5 ± 2.08 µM, respectively.
Consider `CCN1Cc2ccccc2C(C2CCCC2)(C2CCN(CC3CN(c4ccc(S(=O)(=O)C5CCCC5)cc4)C3)CC2)C1` (stereo not drawn) [compound 142, 4-cyclopentyl-4-(1-((1-(4-(cyclopentylsulfonyl)phenyl)azetidin-3-yl)methyl)piperidin-4-yl)-2-ethyl-1,2,3,4-tetrahydroisoquinoline], for which the figures for the 50% inhibitory concentration (IC50) (on menin protein; in test [1] (setting [4]); in test [1] (setting [5])) were 8 nM, 3.2 ± 0.3 µM and 0.979 ± 0.335 µM, respectively.
As to `COC(=O)N[C@H]1CCC[C@@H]1C(C#N)(c1ccccc1)C1CCN(CC2CN(c3ccc(S(=O)(=O)C4CC4)cc3)C2)CC1` (mixture of isomers) [compound 319, rac-methyl ((1S,2R)-2-(cyano(1-((1-(4-(cyclopropylsulfonyl)phenyl)azetidin-3-yl)methyl)piperidin-4-yl)(phenyl)methyl)cyclopentyl)carbamate], the concentration for half-maximal inhibition (IC50) is 31 nM on menin protein, 2.77 µM in test [1] (setting [2]) and 0.33 µM in test [1] (setting [3]).
Turning to `CCN1Cc2ccccc2C(C2CCCC2)(C2CCN(CC3CN(c4ccc(S(=O)(=O)c5ccncc5C)cc4)C3)CC2)C1` (stereo not drawn) [compound 153, 4-cyclopentyl-2-ethyl-4-(1-((1-(4-((3-methylpyridin-4-yl)sulfonyl)phenyl)azetidin-3-yl)methyl)piperidin-4-yl)-1,2,3,4-tetrahydroisoquinoline], the values for the IC50 (on menin protein; in test [1] (setting [4]); in test [1] (setting [5])) were 7 nM, 0.77 µM and 0.79 µM, respectively.
For `O=S(=O)(CC1CCCCC1)c1ccc(N2CC(CN3CCC(C4(C5CCCC5)NCCc5ccccc54)CC3)C2)cc1` (stereo not drawn) [compound 93, 1-(1-((1-(4-((cyclohexylmethyl)sulfonyl)phenyl)azetidin-3-yl)methyl)piperidin-4-yl)-1-cyclopentyl-1,2,3,4-tetrahydroisoquinoline] the same measures were 52 nM, 1.1 ± 0.7 µM and 0.779 ± 0.068 µM.
Take `CC(=O)O[C@H]1CCC[C@@H]1C1(C2CCN(CC3CN(c4ccc(S(=O)(=O)C5CC5)cc4)C3)CC2)CN(C)Cc2ccccc21` (mixture of isomers) [compound 203, rac-(1S,2R)-2-(4-(1-((1-(4-(cyclopropylsulfonyl)phenyl)azetidin-3-yl)methyl)piperidin-4-yl)-2-methyl-1,2,3,4-tetrahydroisoquinolin-4-yl)cyclopentyl acetate]: the IC50 was determined as 9 nM on menin protein, 0.687 µM in test [1] (setting [2]) and 0.234 µM in test [1] (setting [3]).
Turning to `O=S(=O)(c1ccc(N2CC(CN3CCC(C4(C5CCCC5)NCCc5ccccc54)CC3)C2)cc1)C1CC1` (stereo not drawn) [compound 135, 1-cyclopentyl-1-(1-((1-(4-(cyclopropylsulfonyl)phenyl)azetidin-3-yl)methyl)piperidin-4-yl)-1,2,3,4-tetrahydroisoquinoline], the half-maximal inhibitory concentration (IC50) on menin protein was 25 nM; in test [1] (setting [4]), 2.1 ± 1 µM; in test [1] (setting [5]), 1.3 ± 0.4 µM.
As to `CCN1Cc2ccccc2C(C2CCCC2)(C2CCN(CC3CN(c4ccc(S(=O)(=O)C5CC5)cc4)C3)CC2)C1` (stereo not drawn) [compound 137, 4-cyclopentyl-4-(1-((1-(4-(cyclopropylsulfonyl)phenyl)azetidin-3-yl)methyl)piperidin-4-yl)-2-ethyl-1,2,3,4-tetrahydroisoquinoline], the figures for the IC50 (at menin protein; in test [1] (setting [4]); in test [1] (setting [5])) were 8 nM, 1.9 ± 0.7 µM and 1 ± 0.2 µM, respectively.
For `CCN1Cc2ccccc2C(C2CCCC2)(C2CCN(CC3CN(c4ccc(S(=O)(=O)CC5CC5)cc4)C3)CC2)C1` (stereo not drawn) [compound 143, 4-cyclopentyl-4-(1-((1-(4-((cyclopropylmethyl)sulfonyl)phenyl)azetidin-3-yl)methyl)piperidin-4-yl)-2-ethyl-1,2,3,4-tetrahydroisoquinoline] the same measures were 28 nM, 3.4 ± 0.5 µM and 1.2 ± 1 µM.
Consider `COC(=O)N[C@H]1CCC[C@@H]1C(C#N)(c1ccccc1)C1CCN(CC2CN(c3ccc(S(=O)(=O)C4CC5CCC4C5)cc3)C2)CC1` (mixture of isomers) [compound 396, methyl rac-((1S,2R)-2-((1-((1-(4-(bicyclo[2.2.1]heptan-2-ylsulfonyl)phenyl)azetidin-3-yl)methyl)piperidin-4-yl)(cyano)(phenyl)methyl)cyclopentyl)carbamate], for which the figures for the IC50 (on menin protein; in test [1] (setting [2]); in test [1] (setting [3])) were 12 nM, 1.46 µM and 0.46 µM, respectively.
With `COC(=O)N[C@H]1CCC[C@@H]1C(C#N)(c1ccccc1)C1CCN(CC2(C)CN(c3ccc(S(=O)(=O)c4cnn(C)c4)cc3)C2)CC1` (mixture of isomers) [compound 398, methyl rac-((1S,2R)-2-(cyano(1-((3-methyl-1-(4-((1-methyl-1H-pyrazol-4-yl)sulfonyl)phenyl)azetidin-3-yl)methyl)piperidin-4-yl)(phenyl)methyl)cyclopentyl) carbamate], the IC50 at menin protein was 167 nM; in test [1] (setting [2]) it was over 10 µM; in test [1] (setting [3]), 4.57 µM.
In the case of `COC(=O)N[C@H]1CCC[C@@H]1C(C#N)(c1ccccc1)C1CCN(CC2(F)CN(c3ccc(S(=O)(=O)c4cnn(C)c4)cc3)C2)CC1` (mixture of isomers) [compound 397, methyl rac-((1S,2R)-2-(cyano(1-((3-fluoro-1-(4-((1-methyl-1H-pyrazol-4-yl)sulfonyl)phenyl)azetidin-3-yl)methyl)piperidin-4-yl)(phenyl)methyl)cyclopentyl) carbamate], the IC50 at menin protein was 186 nM; in test [1] (setting [2]) it was over 10 µM; in test [1] (setting [3]), 4.54 µM.
The corresponding values for `CC(=O)N[C@H]1CCC[C@@H]1C(C#N)(c1ccccc1)C1CCN(CC2CN(c3ccc(S(=O)(=O)C4CC4)cc3)C2)CC1` (mixture of isomers) [compound 281, rac-N-((1S,2R)-2-(cyano(1-((1-(4-(cyclopropylsulfonyl)phenyl)azetidin-3-yl)methyl)piperidin-4-yl)(phenyl)methyl)cyclopentyl) acetamide] are 29 nM, 2.35 µM and 0.55 µM.
For the compound `CCc1cnccc1S(=O)(=O)c1ccc(N2CC(CN3CCC(C4(C5CCCC5)CN(CC)Cc5ccccc54)CC3)C2)cc1` (stereo not drawn) [compound 156, 4-cyclopentyl-2-ethyl-4-(1-((1-(4-((3-ethylpyridin-4-yl)sulfonyl)phenyl)azetidin-3-yl)methyl)piperidin-4-yl)-1,2,3,4-tetrahydroisoquinoline], the IC50 at menin protein is 8 nM; in test [1] (setting [4]), 1.8 µM; in test [1] (setting [5]), 0.654 µM.
For `CC(=O)N[C@H]1CCC[C@@H]1C(C#N)(c1ccccc1)C1CCN(CC2CN(c3ccc(S(=O)(=O)c4ccncc4)cc3)C2)CC1` (mixture of isomers) [compound 263, rac-N-((1S,2R)-2-(cyano(phenyl)(1-((1-(4-(pyridin-4-ylsulfonyl)phenyl)azetidin-3-yl)methyl)piperidin-4-yl)methyl)cyclopentyl) acetamide], the IC50 at menin protein came to 10 nM; in test [1] (setting [2]), 1.4 µM; in test [1] (setting [3]), 0.254 µM.
On to `O=S(=O)(c1ccc(N2CC(CN3CCC(C4(C5CCCC5)NCCc5ccccc54)CC3)C2)cc1)C1CCCCC1` (stereo not drawn) [compound 92, 1-(1-((1-(4-(cyclohexylsulfonyl)phenyl)azetidin-3-yl)methyl)piperidin-4-yl)-1-cyclopentyl-1,2,3,4-tetrahydroisoquinoline], for which the values for the IC50 (at menin protein; in test [1] (setting [4]); in test [1] (setting [5])) were 19 nM, 1.6 ± 0.1 µM and 0.961 ± 0.384 µM, respectively.
The corresponding values for `N#Cc1ccc(N2CCC(CN3CCC(C4(C5CCCC5)NCCc5ccccc54)CC3)C2)cc1` (stereo not drawn) [compound 113, 4-(3-((4-(1-cyclopentyl-1,2,3,4-tetrahydroisoquinolin-1-yl)piperidin-1-yl)methyl)pyrrolidin-1-yl)benzonitrile] are 67 nM, 2.4 µM and 1.6 µM.
As to `CCN1Cc2ccccc2C(C2CCN(CC3CN(c4ccc(S(=O)(=O)c5ccccc5)cc4)C3)CC2)([C@H]2CCC[C@@H]2NC(=O)NC)C1` (mixture of isomers) [compound 290, rac-1-((1S,2R)-2-(2-ethyl-4-(1-((1-(4-(phenylsulfonyl)phenyl)azetidin-3-yl)methyl)piperidin-4-yl)-1,2,3,4-tetrahydroisoquinolin-4-yl)cyclopentyl)-3-methylurea], the IC50 was 9 nM on menin protein, 0.32 µM in test [1] (setting [2]) and 0.11 µM in test [1] (setting [3]).
With `c1cnc(N2CC(CN3CCC(C4(C5CCCC5)NCCc5ccccc54)CC3)C2)nc1` (stereo not drawn) [compound 111, 1-cyclopentyl-1-(1-((1-(pyrimidin-2-yl)azetidin-3-yl)methyl)piperidin-4-yl)-1,2,3,4-tetrahydroisoquinoline], the IC50 at menin protein was 46200 nM; in test [1] (setting [4]), 96.2 µM; in test [1] (setting [5]), 14.4 µM.
Turning to `CCN1Cc2ccccc2C(C2CCCC2)(C2CCN(CC3CN(c4ccc(S(=O)(=O)C5CC5)cc4)C3)C(C)C2)C1` (stereo not drawn) [compound 94, 4-cyclopentyl-4-(1-((1-(4-(cyclopropylsulfonyl)phenyl)azetidin-3-yl)methyl)-2-methylpiperidin-4-yl)-2-ethyl-1,2,3,4-tetrahydroisoquinoline], the IC50 at menin protein is 29 nM; in test [1] (setting [4]), 2.3 µM; in test [1] (setting [5]), 2 µM.
